Molecules are shown by their SMILES.

T1 sequence (Q92918 whole entry): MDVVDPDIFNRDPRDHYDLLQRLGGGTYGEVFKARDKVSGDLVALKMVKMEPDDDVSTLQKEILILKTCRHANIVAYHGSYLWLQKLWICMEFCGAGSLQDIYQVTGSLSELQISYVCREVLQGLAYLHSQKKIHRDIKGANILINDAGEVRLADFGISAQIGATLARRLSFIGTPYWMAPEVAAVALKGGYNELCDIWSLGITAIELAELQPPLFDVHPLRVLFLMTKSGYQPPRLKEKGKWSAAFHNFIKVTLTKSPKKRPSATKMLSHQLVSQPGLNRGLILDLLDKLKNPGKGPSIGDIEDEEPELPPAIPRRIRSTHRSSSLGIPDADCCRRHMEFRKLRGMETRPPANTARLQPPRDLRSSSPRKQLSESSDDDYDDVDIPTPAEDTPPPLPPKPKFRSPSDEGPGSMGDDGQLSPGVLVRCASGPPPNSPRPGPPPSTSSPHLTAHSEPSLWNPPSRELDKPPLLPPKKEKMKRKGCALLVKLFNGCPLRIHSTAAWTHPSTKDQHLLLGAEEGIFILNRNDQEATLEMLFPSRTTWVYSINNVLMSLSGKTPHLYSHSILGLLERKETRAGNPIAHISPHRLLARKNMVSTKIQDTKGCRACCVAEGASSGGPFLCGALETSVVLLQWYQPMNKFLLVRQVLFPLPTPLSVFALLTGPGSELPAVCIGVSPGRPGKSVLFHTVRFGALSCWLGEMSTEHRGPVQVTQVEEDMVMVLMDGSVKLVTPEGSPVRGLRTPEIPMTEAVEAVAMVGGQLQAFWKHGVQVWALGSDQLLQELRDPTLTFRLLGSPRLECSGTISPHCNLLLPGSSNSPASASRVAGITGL

The assay addresses T1, HPK1 (Homo sapiens, UniProt Q92918).
T1 construct: purchased Invitrogen
Briefly: HPK1 biochemical enzyme assay (microfluidic mobility shift assay). The following applies: 1000 uM (1 mM) ATP; Caliper mobility shift; 1.5 nM HPK1; 30 min preincubation; read-out: HPK1 1000UMATP caliper IC50. In outline:
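Microfluidic mobility-shift readout with 1.5 nM HPK1 in pH 7.4 buffer; compounds (ten-point curves, top 3 μM final) preincubated 30 min with enzyme/substrate. Reaction started with 1 mM ATP and 1 μM substrate plus 5 mM MgCl2, run 60 min at RT. IC50 values binned into activity classes.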
What is called IC50 is the concentration that inhibits the measured activity by half. With `O=C(c1ccc(-c2cc(Nc3ccc(N4CCC5(CCOCC5)CC4)cn3)c3c(=O)[nH]ccc3n2)c(F)c1)N1CCCCC1` [I-148, 2-[2-fluoro-4-(piperidine-1-carbonyl)phenyl]-4-[[5-(3-oxa-9-azaspiro [5.5]undecan-9-yl)-2-pyridyl]amino]-6H-naphthyridin-5-one], the IC50 was > 1000 nM. Take `CC(C)(C#N)c1ccc(-c2cc(Nc3ccc(N4CCC(O)CC4)cn3)c3c(=O)[nH]ccc3n2)c(F)c1` [I-149, 2-[3-fluoro-4-[4-[[5-(4-hydroxy-1-piperidyl)-2-pyridyl]amino]-5-oxo-6H-1,6-naphthyridin-2-yl]phenyl]-2-methyl-propane-nitrile]: the IC50 is 100 to 1000 nM.

Consider `O=c1[nH]ccc2nc(-c3cc(CN4CCCCC4)ccc3F)cc(Nc3ccc(N4CCC(O)CC4)cn3)c12` [I-150, 2-[2-fluoro-5-(1-piperidyl-methyl)phenyl]-4-[[5-(4-hydroxy-1-piperidyl)-2-pyridyl]amino]-6H-1,6-naphthyridin-5-one], for which the IC50 was in the range of 100 to 1000 nM.

Regarding `O=C(Nc1ccc(-c2cc(Nc3ccc(N4CCC(O)CC4)cn3)c3c(=O)[nH]ccc3n2)c(F)c1)C1CCC1` [I-152, N-[3-fluoro-4-[4-[[5-(4-hydroxy-1-piperidyl)-2-pyridyl]amino]-5-oxo-6H-1,6-naphthyridin-2-yl]phenyl] cyclobutane-carboxamide], the half-inhibitory concentration (IC50) lay in the range of 100 to 1000 nM. Take `CC1(C(=O)Nc2ccc(-c3cc(Nc4ccc(N5CCC(O)CC5)cn4)c4c(=O)[nH]ccc4n3)c(F)c2)CC1` [I-153]: the 50% inhibitory concentration (IC50) fell in the range of 100 to 1000 nM. On to `O=C(Nc1ccc(-c2cc(Nc3ccc(N4CCC(O)CC4)cn3)c3c(=O)[nH]ccc3n2)c(F)c1)C1CCCC1` [I-154, N-[3-fluoro-4-[4-[[5-(4-hydroxy-1-piperidyl)-2-pyridyl]amino]-5-oxo-6H-1,6-naphthyridin-2-yl]phenyl] cyclo-pentane carboxamide], for which the IC50 fell in the range of 100 to 1000 nM.

For the molecule `O=C(c1ccc(-c2cc(Nc3ccc(N4CCOCC4)cn3)c3c(=O)[nH]ccc3n2)c(F)c1)N1CCCCC1` [I-155, 2-[2-fluoro-4-(piperidine-1-carbonyl)phenyl]-4-[(5-morpholino-2-pyridyl)amino]-6H-1,6-naphthyridin-5-one], the IC50 was > 1000 nM. Turning to `COc1cc(-c2cc(Nc3ccc(N4CCNCC4)cn3)c3c(=O)[nH]ccc3n2)c(F)cc1C(=O)N1CCCCC1` [I-157], the IC50 is > 1000 nM. As to `Cc1c[nH]c(=O)c2c(Nc3ccc(N4CCC(O)CC4)cn3)cc(-c3ccc(NC(=O)C4CCCCC4)cc3F)nc12` [I-158, N-[3-fluoro-4-[4-[[5-(4-hydroxy-1-piperidyl)-2-pyridyl]amino]-8-methyl-5-oxo-6H-1,6-naphthyridin-2-yl]phenyl] cyclohexane carboxamide], the concentration for half-maximal inhibition (IC50) was ≤ 100 nM. The result for `O=C(Nc1ccc(-c2cc(Nc3ccc(N4CCOCC4)cn3)c3c(=O)[nH]ccc3n2)c(F)c1)C1CCCCC1` [I-159, N-[3-fluoro-4-[4-[(5-morpholino-2-pyridyl)amino]-5-oxo-6H-1,6-naphthyridin-2-yl]phenyl] cyclohexane carboxamide] reads ≤ 100 nM.

`O=C(Nc1ccc(-c2cc(Nc3ccc(C(=O)N4CCCC4)cc3)c3c(=O)[nH]ccc3n2)c(F)c1)C1CCCCC1` [I-160, N-[3-fluoro-4-[5-oxo-4-[4-(pyrrolidine-1-carbonyl)anilino]-6H-1,6-naphthyridin-2-yl]phenyl] cyclohexane carboxamide]: the concentration for half-maximal inhibition (IC50) is ≤ 100 nM. As to `COc1cc(-c2cc(Nc3ccc(N4CCC(O)CC4)cn3)c3c(=O)[nH]cc(C)c3n2)c(F)cc1C(=O)N1CCCCC1` [I-163, 2-[2-fluoro-5-methoxy-4-(piperidine-1-carbonyl)phenyl]-4-[[5-(4-hydroxy-1-piperidyl)-2-pyridyl]amino]-8-methyl-6H-1,6-naphthyridin-5-one], the IC50 was > 1000 nM. The result for `COc1cc(-c2cc(Nc3ccc(N4CCOCC4)cn3)c3c(=O)[nH]ccc3n2)c(F)cc1C(=O)N1CCCCC1` [I-164, 2-[2-fluoro-5-methoxy-4-(piperidine-1-carbonyl)phenyl]-4-[(5-morpholino-2-pyridyl)amino]-6H-1,6-naphthyridin-5-one] reads ≤ 100 nM; that for `COc1cc(-c2cc(Nc3ccc(C(=O)N4CCCC4)cc3)c3c(=O)[nH]ccc3n2)c(F)cc1C(=O)N1CCCCC1` [I-165, 2-[2-fluoro-5-methoxy-4-(piperidine-1-carbonyl)phenyl]-4-[4-(pyrrolidine-1-carbonyl)amino]-6H-1,6-naphthyridin-5-one], 100 to 1000 nM. The result for `COc1c(C(=O)N2CCCCC2)ccc(-c2cc(Nc3ccc(N4CCC(O)CC4)cn3)c3c(=O)[nH]ccc3n2)c1F` [I-166, 2-[2-fluoro-3-methoxy-4-(piperidine-1-carbonyl)phenyl]-4-[[5-(4-hydroxy-1-piperidyl)-2-pyridyl]amino]-6H-1,6-naphthyridin-5-one] reads ≤ 100 nM; that for `Cc1cc(F)c(-c2cc(Nc3ccc(N4CCC(O)CC4)cn3)c3c(=O)[nH]ccc3n2)cc1C(=O)N1CCCCC1` [I-167, 2-[2-fluoro-4-methyl-5-(piperidine-1-carbonyl)phenyl]-4-[[5-(4-hydroxy-1-piperidyl)-2-pyridyl]amino]-6H-1,6-naphthyridin-5-one], ≤ 100 nM. As for `Cc1n[nH]c2cc(F)c(-c3cc(Nc4ccc(N5CCNCC5)cn4)c4c(=O)[nH]ccc4n3)cc12` [I-168, 2-(6-fluoro-3-methyl-1H-indazol-5-yl)-4-[[5-piperazin-1-yl-2-pyridyl)amino]-6H-1,6-naphthyridin-5-one], the half-maximal inhibitory concentration (IC50) is ≤ 100 nM. The result for `COc1cc(-c2cc(Nc3ccc(N4CCC(F)(F)CC4)cn3)c3c(=O)[nH]ccc3n2)c(F)cc1C(=O)N1CCCCC1` [I-169, 4-[[5-(4,4-difluoro-1-piperidyl)-2-pyridyl]amino]-2-[2-fluoro-5-methoxy-4-(piperidine-1-carbonyl)phenyl]-6H-1,6-naphthyridin-5-one] reads 100 to 1000 nM; that for `COc1cc(-c2cc(Nc3ccc(N4C[C@H]5CC[C@@H](C4)O5)cn3)c3c(=O)[nH]ccc3n2)c(F)cc1C(=O)N1CCCCC1` [I-170, 2-[2-fluoro-5-methoxy-4-(piperidine-1-carbonyl)phenyl]-4-[[5-[(1R,5S)-8-oxa-3-azabicyclo [3.2.1]octan-3-yl]-2-pyridyl]amino]-6H-1,6-naphthyridin-5-one], 100 to 1000 nM; that for `O=c1[nH]ccc2nc(-c3cccc(CN4CCOCC4)c3F)cc(Nc3ccc(N4CCC(O)CC4)cn3)c12` [I-171, 2-[2-fluoro-3-(morpholino-methyl)phenyl]-4-[[5-(4-hydroxy-1-piperidyl)-2-pyridyl]amino]-6H-1,6-naphthyridin-5-one], 100 to 1000 nM.

Turning to `O=C(Nc1ccc(-c2cc(Nc3ccc(N4CCC(F)(F)CC4)cn3)c3c(=O)[nH]ccc3n2)c(F)c1)C1CCCCC1` [I-172, N-[4-[4-[[5-(4,4-difluoro-1-piperidyl)-2-pyridyl]amino]-5-oxo-6H-1,6-naphthyridin-2-yl]-3-fluoro-phenyl] cyclohexane-carboxamide], the IC50 is > 1000 nM. For `O=C(Nc1ccc(-c2cc(Nc3ccc(N4C[C@H]5CC[C@@H](C4)O5)cn3)c3c(=O)[nH]ccc3n2)c(F)c1)C1CCCCC1` [I-173, N-[3-fluoro-4-[4-[[5-[(1R,5S)-8-oxa-3-azabicyclo [3.2.1]octan-3-yl]-2-pyridyl]amino]-5-oxo-6H-1,6-naphthyridin-2-yl]phenyl]-cyclohexane-carboxamide], the IC50 was 100 to 1000 nM. The result for `COc1cc(-c2cc(Nc3ccc(N4CC(F)(F)C4)cn3)c3c(=O)[nH]ccc3n2)c(F)cc1C(=O)N1CCCCC1` [I-174, 4-[[5-(3,3-difluoro-azetidin-1-yl)-2-pyridyl]amino]-2-[2-fluoro-5-methoxy-4-(piperidine-1-carbonyl)phenyl]-6H-1,6-naphthyridin-5-one] reads > 1000 nM; that for `COc1cc(-c2cc(Nc3ccc(N4CCNCC4)cn3)c3c(=O)[nH]ccc3n2)c(F)cc1C(=O)N1CCC1` [I-175, 2-[4-(azetidine-1-carbonyl)-2-fluoro-5-methoxy-phenyl]-4-[(5-piperazin-1-yl-2-pyridyl)amino]-6H-1,6-naphthyridin-5-one], 100 to 1000 nM. For the molecule `COc1cc(-c2cc(Nc3ccc(N4CCNCC4)cn3)c3c(=O)[nH]ccc3n2)c(F)cc1C(=O)N(C)C` [I-176, 5-fluoro-2-methoxy-N,N-dimethyl-4-[5-oxo-4-[(5-piperazin-1-yl-2-pyridyl)amino]-6H-1,6-naphthyridin-2-yl] benzamide], the IC50 is ≤ 100 nM. The result for `O=c1[nH]ccc2nc(-c3cc(CN4CCCC4)ccc3F)cc(Nc3ccc(N4CCC(O)CC4)cn3)c12` [I-177, 2-[2-fluoro-5-(pyrrolidin-1-ylmethyl)phenyl]-4-[[5-(4-hydroxy-1-piperidyl)-2-pyridyl]amino]-6H-1,6-naphthyridin-5-one] reads ≤ 100 nM; that for `Cc1nc2cc(-c3cc(Nc4ccc(N5CCNCC5)cn4)c4c(=O)[nH]ccc4n3)c(F)cc2o1` [I-178, 2-(6-fluoro-2-methyl-1,3-benzoxazol-5-yl)-4-[(5-piperazin-1-yl-2-pyridyl)amino]-6H-1,6-naphthyridin-5-one], 100 to 1000 nM. The result for `O=C(Nc1ccc(-c2cc(Nc3ccc(N4CCC(O)CC4)cn3)c3c(=O)[nH]ccc3n2)c(F)c1)C1CC2CCC1C2` (stereo not drawn) [I-179, N-[3-fluoro-4-[4-[[5-(4-hydroxy-1-piperidyl)-2-pyridyl]amino]-5-oxo-6H-1,6-naphthyridin-2-yl]phenyl] norbornane-2-carboxamide] reads 100 to 1000 nM. `CN1CCN(Cc2ccc(-c3cc(Nc4ccc(N5CCC(O)CC5)cn4)c4c(=O)[nH]ccc4n3)c(F)c2)CC1` [I-180, 2-[2-fluoro-4-[(4-methyl-piperazin-1-yl)methyl]phenyl]-4-[[5-(4-hydroxy-1-piperidyl)-2-pyridyl]amino]-6H-1,6-naphthyridin-5-one]: the concentration for half-maximal inhibition (IC50) is ≤ 100 nM.

In the case of `O=c1[nH]ccc2nc(-c3ccc(CN4CCOCC4)cc3F)cc(Nc3ccc(N4CCC(O)CC4)cn3)c12` [I-181, 2-[2-fluoro-4-(morpholino-methyl)phenyl]-4-[[5-(4-hydroxy-1-piperidyl)-2-pyridyl]amino]-6H-1,6-naphthyridin-5-one], the IC50 is > 1000 nM.

Source of the values: patent US12252488B2 (Nimbus Saturn, Inc., priority 2021, dated 2025).
